Laboratory results published in patent US20240327381A1, “Compounds and Compositions for Selective Degradation of Engineered Proteins” (Celgene Corporation, priority 2023, published 2024).

What was measured:
[1] = target: T1, IKZF1 ZNF2_ZNF3 Q1F degron-tagged CD19 CAR (Homo sapiens, UniProt Q13422, Q146F); assay: Degradation of Q1F degron-tagged CD19 CAR in Jurkat cells (flow cytometry of CAR levels); assay type: cell-based; conditions: for DC50: Jurkat cells expressing CD19 CAR tagged with IKZF1 ZNF2_ZNF3 Q1F, 18 hours at 37° C., CAR levels normalized to untreated cells, read-out: Q1F Jurkat IC50; for Dmax: Ymax is the % protein degraded, Jurkat cells expressing Q1F degron-tagged CD19 CAR, 18 hours, read-out: Q1F Jurkat-YMax
T1 construct: ZNF2_ZNF3 Q1F degron (GERPFFCNQCGASFTQKGNLLRHIKLHSGEKPFKCHLCNYACRRRDALTGHLRTHS); fused on or other part: anti-CD19 scFv, CD28 transmembrane domain, 4-1BB costimulatory domain, CD3 zeta signaling domain (the CAR that carries the degron), and Nluc
Text: Q1F degron-targeting compounds were screened in Jurkat cells engineered to express a IKZF1 ZNF2_ZNF3 Q1F. The cell line was generated with lentiviral vectors containing CD19 CARs tagged with IKZF1 ZNF2_ZNF3 QIF Nluc, which were transduced into Jurkat cells. The CD19 CAR comprised an anti-CD19 scFv, a CD28 transmembrane domain, a 4-1BB costimulatory domain, a CD3ζ signaling domain, and a ZNF2_ZNF3 Q1F degron (GERPFFCNQCGASFTQKGNLLRHIKLHSGEKPFKCHLCNYACRRRDALTGHLRTHS; SEQ ID NO: 1; Q1F substitution underlined). Transduced cells were treated with a titration of each small molecule or no drug and then incubated at 37° C. for 18 hours. Cells were washed and stained with appropriate staining reagent to measure CAR levels. The cells were incubated at 4° C. in the staining reagents for 20 mins and then washed 3 times before being read on the flow cytometer. CAR levels were normalized to cells that had not been treated with drug. EC50 and Ymin values were calculated using the resulting titration curve. This identified small molecules that potently degraded the Q1F degron-tagged CARs (Table 1).
(§1) To determine the EC50 value of a compound for the degradation of a given substrate (concentration of compound that achieves half the maximum degradation observed), a four-parameter logistic model (sigmoidal dose-response model) (FIT=(A+{(B−A)/1+[(C/x)D]})) where C is the inflection point (EC50), D is the […], and A and B are the low and high limits of the fit, respectively) was used. All substrate degradation curves were processed and evaluated using ActivityBase (IDBS), a data analysis software package. Ymax is the % protein degraded (Ymin=100−Ymax and is minimum percent protein remaining).

Helios = target: T2, Helios (Homo sapiens, UniProt Q9UKS7); assay: Helios degradation in Jurkat/Helios/HiBit cells (Nano-Glo luminescence); assay type: cell-based; conditions: 18 hr, read-out: Helios Jurkat Hibit IC50
T2 construct: endogenous in cells; host or cells: Jurkat cells, CRISPR/Cas9 knock-in of HiBit at the IKZF2 locus
Description: For Helios, a stable Jurkat cell line was engineered using CRISPR/Cas9 to insert an in-frame HiBit tag into the carboxy-terminal reading frame of the IKZF2 gene. The sequence of human Helios is shown below:
Test compounds were transferred to 1536 well plates using an acoustic dispenser, and Jurkat/Helios/HiBit cells in DMEM/10% FCS were plated at 10,000 cells/well in a final volume of 5 μL. Cells were incubated at 37 C, 95% RH for 18 hr. Luciferase activity was measured by adding 2 μL/well of Nano-Glo reagent (Promega), incubating at RT for 30 min, and reading luminescence on a microtiter plate reader.
as §1

T2 sequence (Q9UKS7 whole entry): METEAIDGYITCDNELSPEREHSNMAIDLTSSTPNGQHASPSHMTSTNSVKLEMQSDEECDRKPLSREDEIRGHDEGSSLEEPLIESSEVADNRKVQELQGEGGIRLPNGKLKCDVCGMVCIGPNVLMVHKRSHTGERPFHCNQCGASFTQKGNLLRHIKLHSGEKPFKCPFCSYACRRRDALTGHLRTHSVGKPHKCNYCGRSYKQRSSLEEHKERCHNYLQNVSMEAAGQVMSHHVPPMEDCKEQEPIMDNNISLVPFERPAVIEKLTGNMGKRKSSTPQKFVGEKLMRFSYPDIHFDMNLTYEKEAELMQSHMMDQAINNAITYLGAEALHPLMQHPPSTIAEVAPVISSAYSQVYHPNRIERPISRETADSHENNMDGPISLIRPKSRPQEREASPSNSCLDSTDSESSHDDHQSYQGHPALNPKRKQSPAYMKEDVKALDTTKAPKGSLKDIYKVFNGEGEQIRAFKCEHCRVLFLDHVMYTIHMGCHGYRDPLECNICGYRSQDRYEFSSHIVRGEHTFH
T2 sequence (Q96SW2 whole entry, further chain): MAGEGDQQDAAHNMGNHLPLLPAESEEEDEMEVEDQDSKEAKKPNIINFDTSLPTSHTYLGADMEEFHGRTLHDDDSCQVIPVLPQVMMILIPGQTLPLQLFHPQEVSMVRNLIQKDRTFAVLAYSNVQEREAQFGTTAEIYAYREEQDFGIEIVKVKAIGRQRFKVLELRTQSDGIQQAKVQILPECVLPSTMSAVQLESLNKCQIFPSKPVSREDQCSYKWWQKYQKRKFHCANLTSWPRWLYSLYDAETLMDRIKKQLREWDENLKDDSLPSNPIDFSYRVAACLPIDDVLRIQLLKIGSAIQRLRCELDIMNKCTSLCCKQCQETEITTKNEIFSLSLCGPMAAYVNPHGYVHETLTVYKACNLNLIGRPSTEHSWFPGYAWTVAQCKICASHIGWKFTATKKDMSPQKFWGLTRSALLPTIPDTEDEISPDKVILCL
T2 sequence (Q16531 whole entry partner): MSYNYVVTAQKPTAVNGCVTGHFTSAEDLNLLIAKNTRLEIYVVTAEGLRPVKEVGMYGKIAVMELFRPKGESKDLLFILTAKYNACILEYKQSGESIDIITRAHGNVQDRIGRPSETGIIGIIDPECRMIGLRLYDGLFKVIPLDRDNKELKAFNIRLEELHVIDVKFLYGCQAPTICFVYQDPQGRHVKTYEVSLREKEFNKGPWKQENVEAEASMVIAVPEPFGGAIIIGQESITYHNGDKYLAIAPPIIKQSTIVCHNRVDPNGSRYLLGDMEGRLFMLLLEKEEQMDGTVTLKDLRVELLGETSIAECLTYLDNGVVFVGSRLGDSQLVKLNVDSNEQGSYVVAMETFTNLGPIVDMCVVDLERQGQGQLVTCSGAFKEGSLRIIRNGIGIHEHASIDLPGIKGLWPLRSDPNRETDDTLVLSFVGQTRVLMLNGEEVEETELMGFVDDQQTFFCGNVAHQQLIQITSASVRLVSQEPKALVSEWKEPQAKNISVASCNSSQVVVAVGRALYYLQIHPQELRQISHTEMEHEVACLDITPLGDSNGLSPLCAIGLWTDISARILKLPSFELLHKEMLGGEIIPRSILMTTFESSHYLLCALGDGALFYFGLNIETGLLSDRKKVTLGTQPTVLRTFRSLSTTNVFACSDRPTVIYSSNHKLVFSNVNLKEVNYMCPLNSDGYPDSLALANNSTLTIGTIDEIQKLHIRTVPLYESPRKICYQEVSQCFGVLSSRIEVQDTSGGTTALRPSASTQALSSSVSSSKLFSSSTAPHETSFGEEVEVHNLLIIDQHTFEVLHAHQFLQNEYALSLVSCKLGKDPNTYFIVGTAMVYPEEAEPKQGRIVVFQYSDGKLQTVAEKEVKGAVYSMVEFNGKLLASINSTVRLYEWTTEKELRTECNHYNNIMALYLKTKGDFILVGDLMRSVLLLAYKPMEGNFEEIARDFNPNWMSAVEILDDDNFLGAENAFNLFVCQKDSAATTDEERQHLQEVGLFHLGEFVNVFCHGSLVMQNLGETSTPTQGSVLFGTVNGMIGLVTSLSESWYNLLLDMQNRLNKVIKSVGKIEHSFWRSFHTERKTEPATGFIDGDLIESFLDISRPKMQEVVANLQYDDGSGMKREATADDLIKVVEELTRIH
T1 sequence (Q13422 whole entry Q146F, the tested form may be a part): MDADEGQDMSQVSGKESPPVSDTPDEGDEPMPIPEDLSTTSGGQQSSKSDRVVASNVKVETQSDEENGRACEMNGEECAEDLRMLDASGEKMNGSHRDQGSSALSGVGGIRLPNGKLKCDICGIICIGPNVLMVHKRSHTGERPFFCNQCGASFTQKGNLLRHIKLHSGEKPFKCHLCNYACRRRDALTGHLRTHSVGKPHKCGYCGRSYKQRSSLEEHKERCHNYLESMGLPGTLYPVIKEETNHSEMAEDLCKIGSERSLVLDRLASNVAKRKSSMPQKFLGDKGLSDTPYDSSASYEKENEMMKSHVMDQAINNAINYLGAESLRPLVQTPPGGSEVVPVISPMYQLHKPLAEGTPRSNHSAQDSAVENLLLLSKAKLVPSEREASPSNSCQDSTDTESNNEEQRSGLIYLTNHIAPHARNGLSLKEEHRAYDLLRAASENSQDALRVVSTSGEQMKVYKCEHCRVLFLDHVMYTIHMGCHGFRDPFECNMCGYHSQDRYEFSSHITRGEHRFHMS

| SMILES | DC50 (Helios) | DC50 [1] | Dmax [1] |
| --- | --- | --- | --- |
| C[C@@H](CO)CN1CCC(c2c(F)cc3c(c2F)CN(C2CCC(=O)NC2=O)C3=O)CC1 (mixture of isomers) [Compound 119, rac-3-(4,6-difluoro-5-(1-((R)-3-hydroxy-2-methylpropyl)piperidin-4-yl)-1-oxoisoindolin-2-yl)piperidine-2,6-dione] | ≥ 10 µM | 8.65 nM | 80.7% |
| O=C1CCC(N2Cc3c(cc(F)c(C4CCN(C5CCC5)CC4)c3F)C2=O)C(=O)N1 (centres unmarked) [Compound 3, 3-(5-(1-cyclobutylpiperidin-4-yl)-4,6-difluoro-1-oxoisoindolin-2-yl)piperidine-2,6-dione] | ≥ 10 µM | 4.37 nM | 78.7% |
| O=C1CCC(N2Cc3c(cc(F)c(C4CCN(CC5CCOC5)CC4)c3F)C2=O)C(=O)N1 (centres unmarked) [Compound 7, 3-(4,6-difluoro-1-oxo-5-(1-((tetrahydrofuran-3-yl)methyl)piperidin-4-yl)isoindolin-2-yl)piperidine-2,6-dione] | ≥ 10 µM | 0.265 nM | 86.2% |
| O=C1CCC(N2Cc3c(cc(F)c(C4(O)CCN(Cc5ccc6ncsc6c5)CC4)c3F)C2=O)C(=O)N1 (centres unmarked) [Compound 12] | ≥ 10 µM | 4.33 nM | 83.4% |
| Cc1cc(Br)cnc1CN1CCC(O)(c2c(F)cc3c(c2F)CN(C2CCC(=O)NC2=O)C3=O)CC1 (centres unmarked) [Compound 13, 3-(5-(1-((5-bromo-3-methylpyridin-2-yl)methyl)-4-hydroxypiperidin-4-yl)-4,6-difluoro-1-oxoisoindolin-2-yl)piperidine-2,6-dione] | ≥ 10 µM | 86 nM | 62.4% |
| O=C1CCC(N2Cc3c(cc(F)c(C4(O)CCN(Cc5coc(-c6cccs6)n5)CC4)c3F)C2=O)C(=O)N1 (centres unmarked) [Compound 14, 3-(4,6-difluoro-5-(4-hydroxy-1-((2-(thiophen-2-yl)oxazol-4-yl)methyl)piperidin-4-yl)-1-oxoisoindolin-2-yl)piperidine-2,6-dione] | ≥ 10 µM | 22.4 nM | 66.9% |
| O=C1CCC(N2Cc3c(cc(F)c(C4(O)CCN(Cc5cccc(-n6cccn6)c5)CC4)c3F)C2=O)C(=O)N1 (centres unmarked) [Compound 15, 3-(5-(1-(3-(1H-pyrazol-1-yl)benzyl)-4-hydroxypiperidin-4-yl)-4,6-difluoro-1-oxoisoindolin-2-yl)piperidine-2,6-dione] | ≥ 10 µM | 4.94 nM | 79.9% |
| O=C1CCC(N2Cc3c(cc(F)c(C4(O)CCN(Cc5ccc(C(F)(F)F)cc5F)CC4)c3F)C2=O)C(=O)N1 (centres unmarked) [Compound 20, 3-(4,6-difluoro-5-(1-(2-fluoro-4-(trifluoromethyl)benzyl)-4-hydroxypiperidin-4-yl)-1-oxoisoindolin-2-yl)piperidine-2,6-dione] | – | 33.3 nM | 77.1% |
| O=C1CCC(N2Cc3c(cc(F)c(C4(O)CCN(Cc5cc(F)c(C(F)(F)F)cc5F)CC4)c3F)C2=O)C(=O)N1 (centres unmarked) [Compound 21, 3-(5-(1-(2,5-difluoro-4-(trifluoromethyl)benzyl)-4-hydroxypiperidin-4-yl)-4,6-difluoro-1-oxoisoindolin-2-yl)piperidine-2,6-dione] | – | 40.2 nM | 70.7% |
| COc1ccc(-n2cccn2)c(CN2CCC(O)(c3c(F)cc4c(c3F)CN(C3CCC(=O)NC3=O)C4=O)CC2)c1 (centres unmarked) [Compound 23, 3-(4,6-difluoro-5-(4-hydroxy-1-(5-methoxy-2-(1H-pyrazol-1-yl)benzyl)piperidin-4-yl)-1-oxoisoindolin-2-yl)piperidine-2,6-dione] | – | 279 nM | 51.6% |
| O=C1CCC(N2Cc3c(cc(F)c(C4(O)CCN(Cc5ncccc5Br)CC4)c3F)C2=O)C(=O)N1 (centres unmarked) [Compound 24, 3-(5-(1-((3-bromopyridin-2-yl)methyl)-4-hydroxypiperidin-4-yl)-4,6-difluoro-1-oxoisoindolin-2-yl)piperidine-2,6-dione] | – | 101 nM | 57.3% |
| COc1ccnc(CN2CCC(O)(c3c(F)cc4c(c3F)CN(C3CCC(=O)NC3=O)C4=O)CC2)c1 (centres unmarked) [Compound 25, 3-(4,6-difluoro-5-(4-hydroxy-1-((4-methoxypyridin-2-yl)methyl)piperidin-4-yl)-1-oxoisoindolin-2-yl)piperidine-2,6-dione] | – | 48.2 nM | 67.4% |
| Cc1ccc(CN2CCC(O)(c3c(F)cc4c(c3F)CN(C3CCC(=O)NC3=O)C4=O)CC2)cc1 (centres unmarked) [Compound 27, 3-(4,6-difluoro-5-(4-hydroxy-1-(4-methylbenzyl)piperidin-4-yl)-1-oxoisoindolin-2-yl)piperidine-2,6-dione] | – | 17.2 nM | 76.2% |
| CN(CCN1CCC(O)(c2c(F)cc3c(c2F)CN(C2CCC(=O)NC2=O)C3=O)CC1)Cc1ccccc1 (centres unmarked) [Compound 30, 3-(5-(1-(2-(benzyl(methyl)amino)ethyl)-4-hydroxypiperidin-4-yl)-4,6-difluoro-1-oxoisoindolin-2-yl)piperidine-2,6-dione] | – | 192 nM | 57.8% |

Second part, led by results:

| DC50 (Helios) | SMILES | DC50 [1] | Dmax [1] |
| --- | --- | --- | --- |
| ≥ 10 µM | Cn1cncc1CN1CCC(c2c(F)cc3c(c2F)CN(C2CCC(=O)NC2=O)C3=O)CC1 (centres unmarked) [Compound 1, 3-(4,6-difluoro-5-(1-((1-methyl-1H-imidazol-5-yl)methyl)piperidin-4-yl)-1-oxoisoindolin-2-yl)piperidine-2,6-dione] | 10.4 nM | 85.3% |
| ≥ 10 µM | O=C1CCC(N2Cc3c(cc(F)c(C4CCN(Cc5ccc(F)cc5)CC4)c3F)C2=O)C(=O)N1 (centres unmarked) [Compound 2, 3-(4,6-difluoro-5-(1-(4-fluorobenzyl)piperidin-4-yl)-1-oxoisoindolin-2-yl)piperidine-2,6-dione] | 1.43 nM | 88.8% |
| ≥ 10 µM | Cc1cc(CN2CCC(c3c(F)cc4c(c3F)CN(C3CCC(=O)NC3=O)C4=O)CC2)on1 (centres unmarked) [Compound 4, 3-(4,6-difluoro-5-(1-((3-methylisoxazol-5-yl)methyl)piperidin-4-yl)-1-oxoisoindolin-2-yl)piperidine-2,6-dione] | 105 nM | 82.3% |
| ≥ 10 µM | O=C1CCC(N2Cc3c(cc(F)c(C4CCN(Cc5ccc(-c6ccccc6)o5)CC4)c3F)C2=O)C(=O)N1 (centres unmarked) [Compound 5, 3-(4,6-difluoro-1-oxo-5-(1-((5-phenylfuran-2-yl)methyl)piperidin-4-yl)isoindolin-2-yl)piperidine-2,6-dione] | 5.7 nM | 85.8% |
| ≥ 10 µM | O=C1CCC(N2Cc3c(cc(F)c(C4CCN(Cc5ccsc5)CC4)c3F)C2=O)C(=O)N1 (centres unmarked) [Compound 6, 3-(4,6-difluoro-1-oxo-5-(1-(thiophen-3-ylmethyl)piperidin-4-yl)isoindolin-2-yl)piperidine-2,6-dione] | 5 nM | 89.1% |
| ≥ 10 µM | O=C1CCC(N2Cc3c(cc(F)c(C4CCN(Cc5ccc(-n6ccnc6)cc5)CC4)c3F)C2=O)C(=O)N1 (centres unmarked) [Compound 8, 3-(5-(1-(4-(1H-imidazol-1-yl)benzyl)piperidin-4-yl)-4,6-difluoro-1-oxoisoindolin-2-yl)piperidine-2,6-dione] | 4.97 nM | 91.7% |
| ≥ 10 µM | O=C1CCC(N2Cc3c(cc(F)c(C4CCN(Cc5ccnn5-c5ccccc5)CC4)c3F)C2=O)C(=O)N1 (centres unmarked) [Compound 9, 3-(4,6-difluoro-1-oxo-5-(1-((1-phenyl-1H-pyrazol-5-yl)methyl)piperidin-4-yl)isoindolin-2-yl)piperidine-2,6-dione] | 2.74 nM | 89.1% |
| ≥ 10 µM | O=C1CCC(N2Cc3c(cc(F)c(C4CCN(CC(c5ccccc5)c5ccccc5)CC4)c3F)C2=O)C(=O)N1 (centres unmarked) [Compound 10, 3-(5-(1-(2,2-diphenylethyl)piperidin-4-yl)-4,6-difluoro-1-oxoisoindolin-2-yl)piperidine-2,6-dione] | 0.202 nM | 90.7% |
